Consider 57 compounds from patent publication US6573262B2, “Composition and antiviral activity of substituted indoleoxoacetic piperazine derivatives” (priority 2000, dated 2003).

The test system of this test is HIV-1 single-round infectious reporter virus. Description: microbe, parasite or virus in culture. It is filed as cell-based. Conditions: for EC50: Human immunodeficiency virus 1, HeLa-CD4/CCR5, 72 h, read-out: EC50 Group from Table 1; for inhibition at 10 µM: Human immunodeficiency virus 1, HeLa-CD4/CCR5, read-out: % Inhibition @ 10 uM.

For `O=C(NCc1nc2ccccc2[nH]1)c1ccc(F)c2c(C(=O)C(=O)N3CCN(C(=O)c4ccccc4)CC3)c[nH]c12` [Example 53], the concentration for a half-maximal effect (EC50) is less than 1 µM.
For the compound `O=C(Nc1nn[nH]n1)c1ccc(F)c2c(C(=O)C(=O)N3CCN(C(=O)c4ccccc4)CC3)c[nH]c12` [Example 54], the concentration for a half-maximal effect (EC50) is less than 1 µM and the inhibition at 10 µM is greater than 98%.
Taken in the same sequence, the figures for `CS(=O)(=O)NC(=O)c1ccc(F)c2c(C(=O)C(=O)N3CCN(C(=O)c4ccccc4)CC3)c[nH]c12` [Example 60] were less than 1 µM and greater than 98%.
Taken in the same sequence, the figures for `CS(=O)(=O)NC(=O)c1cccc2c(C(=O)C(=O)N3CCN(C(=O)c4ccccc4)CC3)c[nH]c12` [Example 61] were 1 to 5 µM and 75%.
Taken in the same sequence, the figures for `O=C(C(=O)N1CCN(C(=O)c2ccccc2)CC1)c1c[nH]c2c(C(=O)NS(=O)(=O)c3ccccc3)cccc12` [Example 62] were 1 to 5 µM and 74%.
In the case of `O=C(C(=O)N1CCN(C(=O)c2ccccc2)CC1)c1c[nH]c2c(C(=O)Nc3nnn[nH]3)cccc12` [Example 63], the EC50 was less than 1 µM and the inhibition at 10 µM is 96%.
As for `CNC(=O)c1cccc2c(C(=O)C(=O)N3CCN(C(=O)c4ccccc4)C[C@H]3C)c[nH]c12` [Example 64], the EC50 is less than 1 µM and the inhibition at 10 µM was greater than 98%.
Taken in the same sequence, the figures for `C[C@@H]1CN(C(=O)c2ccccc2)CCN1C(=O)C(=O)c1c[nH]c2c(C(=O)N(C)C)cccc12` [Example 65] were less than 1 µM and 70%.
Taken in the same sequence, the figures for `CCN(CC)CCNC(=O)c1cccc2c(C(=O)C(=O)N3CCN(C(=O)c4ccccc4)C[C@H]3C)c[nH]c12` [Example 66] were less than 1 µM and 98%.
Taken in the same sequence, the figures for `CCNC(=O)c1cccc2c(C(=O)C(=O)N3CCN(C(=O)c4ccccc4)C[C@H]3C)c[nH]c12` [Example 67] were less than 1 µM and greater than 98%.
Consider `C[C@@H]1CN(C(=O)c2ccccc2)CCN1C(=O)C(=O)c1c[nH]c2c(C(=O)N3CCN(Cc4ccccc4)CC3)cccc12` [Example 68], for which the EC50 is less than 1 µM and the inhibition at 10 µM was greater than 98%.
Turning to `O=C(C(=O)N1CCN(C(=O)c2ccccc2)CC1)c1c[nH]c2c(C(=O)N3CCN(C(=O)c4ccccc4)CC3)ccc(F)c12` [Example 69], the EC50 is less than 1 µM and the inhibition at 10 µM was greater than 98%.
As to `O=C(O)Cn1nnc(-c2ccc(F)c3c(C(=O)C(=O)N4CCN(C(=O)c5ccccc5)CC4)c[nH]c23)n1` [Example 70], the EC50 was less than 1 µM and the inhibition at 10 µM is greater than 98%.
Turning to `CNC(=O)Cn1nnc(-c2ccc(F)c3c(C(=O)C(=O)N4CCN(C(=O)c5ccccc5)CC4)c[nH]c23)n1` [Example 71], the EC50 was less than 1 µM and the inhibition at 10 µM is greater than 98%.
For `COC(CNC(=O)c1ccc(F)c2c(C(=O)C(=O)N3CCN(C(=O)c4ccccc4)CC3)c[nH]c12)OC` [Example 72], the concentration giving a half-maximal response (EC50) is less than 1 µM and the inhibition at 10 µM was greater than 98%.
On to `O=C(C(=O)N1CCN(C(=O)c2ccccc2)CC1)c1c[nH]c2c(-c3ncco3)ccc(F)c12` [Example 73], for which the EC50 was less than 1 µM and the inhibition at 10 µM was greater than 98%.
Taken in the same sequence, the figures for `N=C(NC1CC1)c1ccc(F)c2c(C(=O)C(=O)N3CCN(C(=O)c4ccccc4)CC3)c[nH]c12` [Example 75] were less than 1 µM and greater than 98%.
Taken in the same sequence, the figures for `O=C(C(=O)N1CCN(C(=O)c2ccccc2)CC1)c1c[nH]c2c(-c3nc4ccccc4[nH]3)ccc(F)c12` [Example 76] were less than 1 µM and greater than 98%.
Turning to `N=C(NN)c1ccc(F)c2c(C(=O)C(=O)N3CCN(C(=O)c4ccccc4)CC3)c[nH]c12` [Example 77], the inhibition at 10 µM was greater than 98%.
On to `Cc1n[nH]c(-c2ccc(F)c3c(C(=O)C(=O)N4CCN(C(=O)c5ccccc5)CC4)c[nH]c23)n1` [Example 78], for which the EC50 was less than 1 µM.
Take `O=C(C(=O)N1CCN(C(=O)c2ccccc2)CC1)c1c[nH]c2c(-c3ncon3)ccc(F)c12` [Example 79]: the 50% effective concentration (EC50) was less than 1 µM and the inhibition at 10 µM was greater than 98%.
Taken in the same sequence, the figures for `Cc1nc(-c2ccc(F)c3c(C(=O)C(=O)N4CCN(C(=O)c5ccccc5)CC4)c[nH]c23)no1` [Example 80] were less than 1 µM and greater than 98%.
With `O=C(C(=O)N1CCN(C(=O)c2ccccc2)CC1)c1c[nH]c2c(-c3noc(C(Cl)(Cl)Cl)n3)ccc(F)c12` [Example 81], the EC50 was less than 1 µM.
For the compound `O=C(C(=O)N1CCN(C(=O)c2ccccc2)CC1)c1c[nH]c2c(-c3noc(NC4CC4)n3)ccc(F)c12` [Example 82], the concentration for a half-maximal effect (EC50) was less than 1 µM and the inhibition at 10 µM was greater than 98%.
Taken in the same sequence, the figures for `Nc1nc(-c2ccc(F)c3c(C(=O)C(=O)N4CCN(C(=O)c5ccccc5)CC4)c[nH]c23)no1` [Example 83] were less than 1 µM and greater than 98%.
Turning to `O=C(C(=O)N1CCN(C(=O)c2ccccc2)CC1)c1c[nH]c2c(-c3cncn3Cc3ccccc3)ccc(F)c12` [Example 84], the EC50 is less than 1 µM.
Consider `O=C(C(=O)N1CCN(C(=O)c2ccccc2)CC1)c1c[nH]c2c(-c3cnc[nH]3)ccc(F)c12` [Example 85], for which the 50% effective concentration (EC50) was less than 1 µM.
Still for that read-out and setting: the result for `CCOC(=O)c1cc(-c2ccc(F)c3c(C(=O)C(=O)N4CCN(C(=O)c5ccccc5)CC4)c[nH]c23)[nH]n1` [Example 86] reads less than 1 µM.
Same read-out and setting: the result for `CCOC(=O)c1cc(-c2ccc(F)c3c(C(=O)C(=O)N4CCN(C(=O)c5ccccc5)CC4)c[nH]c23)on1` [Example 87] reads less than 1 µM.
Same read-out and setting: as for `O=C(O)c1cc(-c2ccc(F)c3c(C(=O)C(=O)N4CCN(C(=O)c5ccccc5)CC4)c[nH]c23)[nH]n1` [Example 88], the figure is less than 1 µM.
For the compound `CNC(=O)c1cc(-c2ccc(F)c3c(C(=O)C(=O)N4CCN(C(=O)c5ccccc5)CC4)c[nH]c23)[nH]n1` [Example 89], the EC50 is less than 1 µM.
Turning to `O=C(O)c1cc(-c2ccc(F)c3c(C(=O)C(=O)N4CCN(C(=O)c5ccccc5)CC4)c[nH]c23)on1` [Example 90], the EC50 is less than 1 µM.
Still for that read-out and setting: as for `CC(C)(C)OC(=O)NNC(=O)c1ccc(F)c2c(C(=O)C(=O)N3CCN(C(=O)c4ccccc4)CC3)c[nH]c12` [Example 91], the figure is less than 1 µM.
Still for that read-out and setting: the result for `NNC(=O)c1ccc(F)c2c(C(=O)C(=O)N3CCN(C(=O)c4ccccc4)CC3)c[nH]c12` [Example 92] reads less than 1 µM; that for `O=C(C(=O)N1CCN(C(=O)c2ccccc2)CC1)c1c[nH]c2c(-c3nnco3)ccc(F)c12` [Example 93], less than 1 µM; that for `CC(=O)Nc1nc(-c2ccc(F)c3c(C(=O)C(=O)N4CCN(C(=O)c5ccccc5)CC4)c[nH]c23)no1` [Example 96], less than 1 µM.
Still for that read-out and setting: the result for `O=C(C(=O)N1CCN(C(=O)c2ccccc2)CC1)c1c[nH]c2c(-c3noc(CCl)n3)ccc(F)c12` [Example 97] reads less than 1 µM.
For the compound `COC(=O)Cc1nc(-c2ccc(F)c3c(C(=O)C(=O)N4CCN(C(=O)c5ccccc5)CC4)c[nH]c23)no1` [Example 98], the EC50 was less than 1 µM.
On to `CNC(=O)c1nc(-c2ccc(F)c3c(C(=O)C(=O)N4CCN(C(=O)c5ccccc5)CC4)c[nH]c23)no1` [Example 102], for which the concentration for a half-maximal effect (EC50) is less than 1 µM.
For the compound `NC(=O)c1nc(-c2ccc(F)c3c(C(=O)C(=O)N4CCN(C(=O)c5ccccc5)CC4)c[nH]c23)no1` [Example 103], the EC50 was less than 1 µM.
Still for that read-out and setting: as for `NC(=O)Cn1nnc(-c2ccc(F)c3c(C(=O)C(=O)N4CCN(C(=O)c5ccccc5)CC4)c[nH]c23)n1` [Example 104], the figure is less than 1 µM; as for `CC(=O)OCn1nnc(-c2ccc(F)c3c(C(=O)C(=O)N4CCN(C(=O)c5ccccc5)CC4)c[nH]c23)n1` [Example 108], less than 1 µM.
Turning to `O=C(C(=O)N1CCN(C(=O)c2ccccc2)CC1)c1c[nH]c2c(-c3nc[nH]n3)ccc(F)c12` [Example 111], the half-maximal effective concentration (EC50) is less than 1 µM.
Consider `O=C(C(=O)N1CCN(C(=O)c2ccccc2)CC1)c1c[nH]c2c(-c3nnn(CCO)n3)ccc(F)c12` [Example 112], for which the 50% effective concentration (EC50) was less than 1 µM.
Regarding `O=C(C(=O)N1CCN(C(=O)c2ccccc2)CC1)c1c[nH]c2c(-c3nnn(CCN4C(=O)c5ccccc5C4=O)n3)ccc(F)c12` [Example 113], the EC50 is less than 1 µM.
Same read-out and setting: as for `CCN(CC)CCn1nnc(-c2ccc(F)c3c(C(=O)C(=O)N4CCN(C(=O)c5ccccc5)CC4)c[nH]c23)n1` [Example 114], the figure is less than 1 µM; as for `N#CCCCn1nnc(-c2ccc(F)c3c(C(=O)C(=O)N4CCN(C(=O)c5ccccc5)CC4)c[nH]c23)n1` [Example 115], less than 1 µM; as for `O=C(C(=O)N1CCN(C(=O)c2ccccc2)CC1)c1c[nH]c2c(-n3cccn3)ccc(F)c12` [Example 116], less than 1 µM.
Still for that read-out and setting: as for `O=C(C(=O)N1CCN(C(=O)c2ccccc2)CC1)c1c[nH]c2c(-n3ccnc3)ccc(F)c12` [Example 117], the figure is less than 1 µM; as for `O=C(C(=O)N1CCN(C(=O)c2ccccc2)CC1)c1c[nH]c2c(-n3cncn3)ccc(F)c12` [Example 118], less than 1 µM.
Still for that read-out and setting: as for `COc1ccc(C(C)=O)c2[nH]cc(C(=O)C(=O)N3CCN(C(=O)c4ccccc4)CC3)c12` [Example 119], the figure is less than 1 µM.
For the compound `CCN(CC)C(=O)COC(=O)c1cc(-c2ccc(F)c3c(C(=O)C(=O)N4CCN(C(=O)c5ccccc5)CC4)c[nH]c23)n[nH]1` [Example 120], the concentration giving a half-maximal response (EC50) was less than 1 µM.
`CC(C)(C)OC(=O)N1CCN(C(=O)C(=O)c2c[nH]c3c(/C(N)=N/O)ccc(F)c23)CC1` [Example 121]: the EC50 is less than 1 µM.
Turning to `CC(C)(C)OC(=O)N1CCN(C(=O)C(=O)c2c[nH]c3c(-c4ncon4)ccc(F)c23)CC1` [Example 122], the concentration giving a half-maximal response (EC50) is less than 1 µM.
Still for that read-out and setting: the result for `CC1CN(C(=O)C(=O)c2c[nH]c3c(-c4ncon4)ccc(F)c23)CCN1C(=O)c1ccccc1` (stereo not drawn) [Example 123] reads less than 1 µM; that for `COc1ccc(/C=N/O)c2[nH]cc(C(=O)C(=O)N3CCN(C(=O)c4ccccc4)CC3)c12` [Example 124], less than 1 µM; that for `CNC(=O)c1ccc(OC)c2c(C(=O)C(=O)N3CCN(C(=O)c4ccccc4)CC3)c[nH]c12` [Example 125], less than 1 µM.

The term EC50 denotes the concentration at which the effect is half-maximal. By inhibition is commonly meant the share of the control response that was lost under treatment.
